Measured values as given in US20240270821A1, “GIP/GLP1/GCG TRI-RECEPTOR AGONISTS AND USES THEREOF” (priority 2023, published 2024).
Starred links: 1 amine or outer side, 2 acyl side, 3 side chain; linkers in the order of their positions; H or OH if unused. Non-standard residues stand in square brackets, D forms with d. Residues, ends and D or L forms follow the SMILES beside them. Groups on a side chain read outwards from the residue. *: point of attachment. C18 diacid = O=C(O)CCCCCCCCCCCCCCCCC(=O)*; αMePhe(2-F) = C[C@](N)(Cc1ccccc1F)C(=O)O; γGlu = O=C(O)[C@H](CCC(=O)[*:2])N[*:1]; αMeF = C[C@](N)(Cc1ccccc1)C(=O)O; 4Pal = N[C@@H](Cc1ccncc1)C(=O)O; Aad = N[C@@H](CCCC(=O)O)C(=O)O; Orn = NCCC[C@H](N)C(=O)O; AEEA = NCCOCCOCC(=O)O; Aib = CC(C)(N)C(=O)O

How the values were obtained:
Format in all cases: cell-based
human GcgR = human GcgR (Homo sapiens, UniProt P47871); assay: Functional cAMP activity in the presence of 1% HSA; settings: read-out: cAMP Rel EC50, hGcgR
hGLP-1R [1] = target: T1, hGLP-1R (Homo sapiens, UniProt P43220); assay: Functional cAMP activity in the presence of 1% HSA; settings: read-out: cAMP Rel EC50, hGLP-1R
hGLP-1R [2] = target: T1, hGLP-1R; assay: Functional cAMP activation in the presence of 0.1% casein (no HSA); settings: read-out: Relative cAMP EC50, hGLP-1R;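 as to Relative cAMP EC50, hGIPR: intracellular cAMP rise after 30 min at 37 °C read by HTRF against a standard curve, scaled between buffer alone (0%) and top control ligand concentration (100%), four-parameter fit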;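 as to Relative cAMP EC50, hGLP-1R: intracellular cAMP rise after 30 min at 37 °C read by HTRF, normalized between buffer only (0%) and maximal control ligand (100%), four-parameter variable-slope fit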;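 as to Relative cAMP EC50, hGcgR: intracellular cAMP rise after 30 min at 37 °C, read by HTRF against a cAMP standard curve, scaled from buffer only (0%) to maximal control ligand response (100%)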
hGIPR [3] = target: T2, hGIPR (Homo sapiens, UniProt P48546); assay: Functional cAMP activity in the presence of 1% HSA; settings: read-out: cAMP Rel EC50, hGIPR
T2 sequence (P48546 22-466): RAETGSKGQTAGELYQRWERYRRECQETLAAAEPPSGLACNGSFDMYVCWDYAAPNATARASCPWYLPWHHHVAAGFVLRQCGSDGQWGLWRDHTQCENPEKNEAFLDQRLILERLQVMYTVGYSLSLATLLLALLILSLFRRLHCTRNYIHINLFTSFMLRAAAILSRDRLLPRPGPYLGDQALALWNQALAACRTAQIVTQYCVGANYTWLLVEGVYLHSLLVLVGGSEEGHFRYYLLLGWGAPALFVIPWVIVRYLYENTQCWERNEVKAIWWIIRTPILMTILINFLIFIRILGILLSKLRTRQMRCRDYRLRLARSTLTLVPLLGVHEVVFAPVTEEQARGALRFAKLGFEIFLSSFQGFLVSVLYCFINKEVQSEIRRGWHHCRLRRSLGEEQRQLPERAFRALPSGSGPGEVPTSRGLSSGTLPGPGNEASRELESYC

hGIPR [4] = target: T2, hGIPR; assay: Functional cAMP activation in the presence of 0.1% casein (no HSA); settings: read-out: Relative cAMP EC50, hGIPR;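 as to Relative cAMP EC50, hGIPR: intracellular cAMP rise after 30 min at 37 °C read by HTRF against a standard curve, scaled between buffer alone (0%) and top control ligand concentration (100%), four-parameter fit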;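 as to Relative cAMP EC50, hGLP-1R: intracellular cAMP rise after 30 min at 37 °C read by HTRF, normalized between buffer only (0%) and maximal control ligand (100%), four-parameter variable-slope fit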;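 as to Relative cAMP EC50, hGcgR: intracellular cAMP rise after 30 min at 37 °C, read by HTRF against a cAMP standard curve, scaled from buffer only (0%) to maximal control ligand response (100%)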
hGcgR = hGcgR (Homo sapiens, UniProt P47871); assay: as above; settings: read-out: Relative cAMP EC50, hGcgR;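 also: intracellular cAMP rise after 30 min at 37 °C, read by HTRF against a cAMP standard curve, scaled from buffer only (0%) to maximal control ligand response (100%)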
Sequence of hGcgR (P47871 26-477): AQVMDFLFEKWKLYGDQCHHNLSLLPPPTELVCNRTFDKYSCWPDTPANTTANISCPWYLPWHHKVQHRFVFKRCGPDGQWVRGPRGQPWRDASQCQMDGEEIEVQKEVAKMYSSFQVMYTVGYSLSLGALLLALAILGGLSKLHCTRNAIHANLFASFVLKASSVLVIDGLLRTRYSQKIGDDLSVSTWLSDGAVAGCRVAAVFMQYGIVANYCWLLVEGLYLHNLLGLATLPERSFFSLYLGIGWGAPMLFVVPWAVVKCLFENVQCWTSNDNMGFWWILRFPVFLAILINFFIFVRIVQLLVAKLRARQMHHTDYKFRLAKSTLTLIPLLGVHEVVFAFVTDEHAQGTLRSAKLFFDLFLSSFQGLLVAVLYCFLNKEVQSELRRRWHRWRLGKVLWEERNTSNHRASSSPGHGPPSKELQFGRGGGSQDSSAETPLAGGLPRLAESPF

T1 sequence (P43220 24-463): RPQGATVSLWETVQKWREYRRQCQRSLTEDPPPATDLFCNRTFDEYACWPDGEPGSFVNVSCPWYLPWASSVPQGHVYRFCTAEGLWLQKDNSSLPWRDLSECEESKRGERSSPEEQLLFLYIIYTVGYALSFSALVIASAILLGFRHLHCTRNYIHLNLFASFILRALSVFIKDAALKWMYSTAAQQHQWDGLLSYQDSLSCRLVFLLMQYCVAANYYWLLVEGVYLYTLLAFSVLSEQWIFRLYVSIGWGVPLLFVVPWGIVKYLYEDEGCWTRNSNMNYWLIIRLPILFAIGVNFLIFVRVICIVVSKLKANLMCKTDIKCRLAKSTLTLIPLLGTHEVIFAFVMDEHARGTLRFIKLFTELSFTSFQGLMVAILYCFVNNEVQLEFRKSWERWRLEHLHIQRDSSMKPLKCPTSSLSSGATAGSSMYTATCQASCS
Sequence of human GcgR (P47871 26-477): as the sequence (P47871 26-477) above

SMILES	EC50 (human GcgR) [nM]	EC50 (hGLP-1R [1]) [nM]	EC50 (hGLP-1R [2]) [nM]	EC50 (hGIPR [3]) [nM]	EC50 (hGIPR [4]) [nM]	EC50 (hGcgR) [nM]
CC[C@H](C)[C@H](NC(=O)[C@H](Cc1ccccc1)NC(=O)[C@H](C)NC(=O)C(C)(C)NC(=O)[C@H](CCC(N)=O)NC(=O)[C@H](C)NC(=O)[C@H](CCCCNC(=O)CC[C@H](NC(=O)CC[C@H](NC(=O)CCCCCCCCCCCCCCCCC(=O)O)C(=O)O)C(=O)O)NC(=O)[C@H](CCCN)NC(=O)[C@H](CC(=O)O)NC(=O)[C@H](CC(C)C)NC(=O)[C@H](CC(C)C)NC(=O)[C@@H](NC(=O)[C@H](CO)NC(=O)[C@H](Cc1ccc(O)cc1)NC(=O)[C@H](CC(=O)O)NC(=O)[C@H](CO)NC(=O)[C@@H](NC(=O)[C@](C)(Cc1ccccc1F)NC(=O)[C@@H](NC(=O)CNC(=O)[C@H](CCC(N)=O)NC(=O)C(C)(C)NC(=O)[C@@H](N)Cc1ccc(O)cc1)[C@@H](C)O)[C@@H](C)O)[C@@H](C)CC)C(=O)N[C@@H](CCC(=O)O)C(=O)N[C@@H](Cc1ccc(O)cc1)C(=O)N[C@@H](CC(C)C)C(=O)N[C@@H](CCC(=O)O)C(=O)N[C@@H](CCC(=O)O)C(=O)NCC(=O)NCC(=O)N1CCC[C@H]1C(=O)N[C@@H](CO)C(=O)N[C@@H](CO)C(=O)NCC(=O)N[C@@H](C)C(=O)N1CCC[C@H]1C(=O)N1CCC[C@H]1C(=O)N1CCC[C@H]1C(=O)N[C@@H](CO)C(N)=O [Example 414] (H-Y[Aib]QGT[αMePhe(2-F)]TSDYSILLD[Orn]K([γGlu-γGlu-C18 diacid])AQ[Aib]AFIEYLEEGGPSSGAPPPS-NH2)	487	32.8	0.176	14.9	0.0303	4.56
CC[C@H](C)[C@H](NC(=O)[C@H](CO)NC(=O)[C@H](Cc1ccc(O)cc1)NC(=O)[C@H](CC(=O)O)NC(=O)[C@H](CO)NC(=O)[C@@H](NC(=O)[C@](C)(Cc1ccccc1F)NC(=O)[C@@H](NC(=O)CNC(=O)[C@H](CCC(N)=O)NC(=O)C(C)(C)NC(=O)[C@@H](N)Cc1ccc(O)cc1)[C@@H](C)O)[C@@H](C)O)C(=O)N[C@@H](CC(C)C)C(=O)N[C@@H](CC(C)C)C(=O)N[C@@H](CC(=O)O)C(=O)N[C@@H](CCCCN)C(=O)N[C@@H](CCCCNC(=O)CC[C@H](NC(=O)CC[C@H](NC(=O)CCCCCCCCCCCCCCCCC(=O)O)C(=O)O)C(=O)O)C(=O)N[C@@H](C)C(=O)N[C@@H](CCC(N)=O)C(=O)NC(C)(C)C(=O)N[C@@H](CCCC(=O)O)C(=O)N[C@@H](Cc1ccccc1)C(=O)N[C@H](C(=O)N[C@@H](CCC(=O)O)C(=O)N[C@@H](Cc1ccc(O)cc1)C(=O)N[C@@H](CC(C)C)C(=O)N[C@@H](CCC(=O)O)C(=O)N[C@@H](CCC(=O)O)C(=O)NCC(=O)NCC(=O)N1CCC[C@H]1C(=O)N[C@@H](CO)C(=O)N[C@@H](CO)C(=O)NCC(=O)N[C@@H](C)C(=O)N1CCC[C@H]1C(=O)N1CCC[C@H]1C(=O)N1CCC[C@H]1C(=O)N[C@@H](CO)C(N)=O)[C@@H](C)CC [Example 415] (H-Y[Aib]QGT[αMePhe(2-F)]TSDYSILLDKK([γGlu-γGlu-C18 diacid])AQ[Aib][Aad]FIEYLEEGGPSSGAPPPS-NH2)	1090	52.6	0.38	28.9	0.0496	8.64
CC[C@H](C)[C@H](NC(=O)[C@H](CO)NC(=O)[C@H](Cc1ccc(O)cc1)NC(=O)[C@H](CC(=O)O)NC(=O)[C@H](CO)NC(=O)[C@@H](NC(=O)[C@](C)(Cc1ccccc1F)NC(=O)[C@@H](NC(=O)CNC(=O)[C@H](CCC(N)=O)NC(=O)C(C)(C)NC(=O)[C@@H](N)Cc1ccc(O)cc1)[C@@H](C)O)[C@@H](C)O)C(=O)N[C@@H](CC(C)C)C(=O)N[C@@H](CC(C)C)C(=O)N[C@@H](CC(=O)O)C(=O)N[C@@H](CCCCN)C(=O)N[C@@H](CCCCNC(=O)CC[C@H](NC(=O)CC[C@H](NC(=O)CCCCCCCCCCCCCCCCC(=O)O)C(=O)O)C(=O)O)C(=O)N[C@@H](C)C(=O)N[C@@H](CCC(N)=O)C(=O)NC(C)(C)C(=O)N[C@@H](CC(N)=O)C(=O)N[C@@H](Cc1ccccc1)C(=O)N[C@H](C(=O)N[C@@H](CCC(=O)O)C(=O)N[C@@H](Cc1ccc(O)cc1)C(=O)N[C@@H](CC(C)C)C(=O)N[C@@H](CCC(=O)O)C(=O)N[C@@H](CCC(=O)O)C(=O)NCC(=O)NCC(=O)N1CCC[C@H]1C(=O)N[C@@H](CO)C(=O)N[C@@H](CO)C(=O)NCC(=O)N[C@@H](C)C(=O)N1CCC[C@H]1C(=O)N1CCC[C@H]1C(=O)N1CCC[C@H]1C(=O)N[C@@H](CO)C(N)=O)[C@@H](C)CC [Example 416] (H-Y[Aib]QGT[αMePhe(2-F)]TSDYSILLDKK([γGlu-γGlu-C18 diacid])AQ[Aib]NFIEYLEEGGPSSGAPPPS-NH2)	348	40.8	0.331	27.6	0.0393	2.08
CC[C@H](C)[C@H](NC(=O)[C@H](Cc1ccccc1)NC(=O)[C@H](C)NC(=O)C(C)(C)NC(=O)[C@H](CCC(N)=O)NC(=O)[C@H](C)NC(=O)[C@H](CCCCNC(=O)COCCOCCNC(=O)COCCOCCNC(=O)CC[C@H](NC(=O)CCCCCCCCCCCCCCCCC(=O)O)C(=O)O)NC(=O)[C@H](CCCCN)NC(=O)[C@H](CC(=O)O)NC(=O)[C@H](CC(C)C)NC(=O)[C@H](CC(C)C)NC(=O)[C@@H](NC(=O)[C@H](CO)NC(=O)[C@H](Cc1ccncc1)NC(=O)[C@H](CC(=O)O)NC(=O)[C@H](CO)NC(=O)[C@@H](NC(=O)[C@](C)(Cc1ccccc1)NC(=O)[C@@H](NC(=O)CNC(=O)[C@H](CCC(N)=O)NC(=O)C(C)(C)NC(=O)[C@@H](N)Cc1ccc(O)cc1)[C@@H](C)O)[C@@H](C)O)[C@@H](C)CC)C(=O)N[C@@H](CCC(=O)O)C(=O)N[C@@H](Cc1ccc(O)cc1)C(=O)N[C@@H](CC(C)C)C(=O)N[C@@H](CC(C)C)C(=O)N[C@@H](CCC(=O)O)C(=O)NCC(=O)NCC(=O)N1CCC[C@H]1C(=O)N[C@@H](CO)C(=O)N[C@@H](CO)C(=O)NCC(=O)N[C@@H](C)C(=O)N1CCC[C@H]1C(=O)N1CCC[C@H]1C(=O)N1CCC[C@H]1C(=O)N[C@@H](CO)C(N)=O [Example 418] (H-Y[Aib]QGT[αMeF]TSD[4Pal]SILLDKK([AEEA-AEEA-γGlu-C18 diacid])AQ[Aib]AFIEYLLEGGPSSGAPPPS-NH2; N-terminus assumed)	627	36.6	0.264	6.02	0.0153	4.7
CC[C@H](C)[C@H](NC(=O)[C@H](CO)NC(=O)[C@H](Cc1ccc(O)cc1)NC(=O)[C@H](CC(=O)O)NC(=O)[C@H](CO)NC(=O)[C@@H](NC(=O)[C@](C)(Cc1ccccc1)NC(=O)[C@@H](NC(=O)CNC(=O)[C@H](CCC(N)=O)NC(=O)C(C)(C)NC(=O)[C@@H](N)Cc1ccc(O)cc1)[C@@H](C)O)[C@@H](C)O)C(=O)N[C@@H](CC(C)C)C(=O)N[C@@H](CC(C)C)C(=O)N[C@@H](CC(=O)O)C(=O)N[C@@H](CCCCN)C(=O)N[C@@H](CCCCNC(=O)COCCOCCNC(=O)COCCOCCNC(=O)CC[C@H](NC(=O)CCCCCCCCCCCCCCCCC(=O)O)C(=O)O)C(=O)N[C@@H](C)C(=O)N[C@@H](CCC(N)=O)C(=O)NC(C)(C)C(=O)N[C@@H](C)C(=O)N[C@@H](Cc1ccccc1)C(=O)N[C@H](C(=O)N[C@H](CCC(=O)O)C(=O)N[C@@H](Cc1ccc(O)cc1)C(=O)N[C@@H](CC(C)C)C(=O)N[C@@H](CC(C)C)C(=O)N[C@@H](CCC(=O)O)C(=O)NCC(=O)NCC(=O)N1CCC[C@H]1C(=O)N[C@@H](CO)C(=O)N[C@@H](CO)C(=O)NCC(=O)N[C@@H](C)C(=O)N1CCC[C@H]1C(=O)N1CCC[C@H]1C(=O)N1CCC[C@H]1C(=O)N[C@@H](CO)C(N)=O)[C@@H](C)CC [Example 419]	1650	65.5	0.615	9.47	0.0235	8.52
